Where two headings read alike, the source gives them in different places.
How the values were obtained:
c-Myc/Max/Ebox DNA = c-Myc/Max/Ebox DNA (Homo sapiens, UniProt P01106); assay: c-Myc/Max/Ebox DNA AlphaScreen assay; assay type: binding; parameters: An exemplary assay uses full-length human c-Myc and Max proteins; his6 (cleaved yes); made in house
Method in brief: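 Free c-Myc (25 nM), made by thrombin removal of the His6 tag, is pre-mixed with biotin-Ebox DNA (10 nM) and Ni acceptor beads before compound addition, then His6-Max (1.25 nM) and streptavidin donor beads are added. Buffer is HEPES pH 8.0 with BSA, Tween20, glycogen and DTT. Read after 2 h, excitation 680 nm, emission 520–620 nm.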

Jurkat cells = assay: Cell viability assay (ATPlite), Jurkat; assay type: cell-based, human; settings: class symbols, NA: not active under assay conditions
Description: (§1) This assay was used for the H2171 and MM1S cell data shown in Table 2, and for the Jurkat (an immortalized line of human T lymphocyte cells), Ly1 (OCI-Ly1 human non-Hodgkin lymphoma cell line), Ly4 (OCI-Ly4 human non-Hodgkin lymphoma cell line), H2172 (NCI-H2172 human non-small cell lung cancer cell line), and CA-46 (a human Burkitt's lymphoma cell line) cell data shown in Table 3 and FIG. 12. Cells were counted and adjusted to 60,000 cells/mL. Using a Biotek EL406, 50 μL of cells are media were distributed into 384 well white plates from Thermo. Immediately after plating, compound in DMSO was distributed to plates. For large plate sets, cells were returned to 37° C. incubator while not in use.
(§2) Compounds were added to plates using a 100 nL 384 well pin transfer manifold on a Janus workstation. Stocks were arrayed in 10 point quadruplicate dose response in DMSO stock in 384 well Greiner compound plates. After addition of compound, plates were incubated for three days in a 37° C. incubator.
(§3) Cell viability was read out using ATPlite from Perkin Elmer. Plates were removed from the incubator and brought to room temperature prior to use. Lyophilized powder was resuspended in lysis buffer and diluted 1:2 with DI water. 25 μL of this solution was added to each well using the Biotek liquid handler. Plates were sealed with adherent aluminum seals prior to vortexing and spinning down at 1000 g for 1 minute. Plates were incubated for 15 minutes at room temperature before signal was read on an Envision Plate Reader.

MM1S cells = assay: Cell viability assay (ATPlite), MM1S; assay type: cell-based, human; settings: Homo sapiens, MM1.S, 72 h, cell viability, three days, ATPlite; NA: inactive under assay conditions
Description: as §1, §2, §3

H2171 cells = assay: Cell viability assay (ATPlite), H2171; assay type: cell-based, human; settings: Homo sapiens, NCI-H2171, 72 h, cell viability, three days, ATPlite; NA: inactive under assay conditions
Description: as §1, §2, §3

[1] = class symbols, NA: not active under assay conditions, read-out: Myc/Max IC50

Chain of c-Myc/Max/Ebox DNA (P01106 16-454): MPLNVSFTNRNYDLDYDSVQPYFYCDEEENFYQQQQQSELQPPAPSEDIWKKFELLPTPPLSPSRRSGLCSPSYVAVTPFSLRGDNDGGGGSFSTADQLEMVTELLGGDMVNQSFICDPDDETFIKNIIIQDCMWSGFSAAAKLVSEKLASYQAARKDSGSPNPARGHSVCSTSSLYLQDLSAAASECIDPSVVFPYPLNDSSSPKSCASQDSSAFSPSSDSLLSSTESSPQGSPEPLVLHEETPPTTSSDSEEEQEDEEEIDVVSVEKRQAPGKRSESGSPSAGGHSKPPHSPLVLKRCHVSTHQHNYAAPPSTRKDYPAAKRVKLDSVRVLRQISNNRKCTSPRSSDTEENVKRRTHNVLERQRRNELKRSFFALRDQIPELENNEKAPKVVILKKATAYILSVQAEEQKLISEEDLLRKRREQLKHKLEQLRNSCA

Compound	IC50 (c-Myc/Max/Ebox DNA; [1])	EC50 (Jurkat cells; Homo sapiens, Jurkat)	further results
Cc1ccc(C)n1-c1ncccc1C(=O)O [Compound 134]	1 to 10 µM	≥ 100 µM	–
COc1cc(C(=O)OCOC(C)=O)c(-n2c(C)ccc2C)cc1OC [Compound 160]	–	–	EC50 (MM1S cells): 211 µM; IC50 (c-Myc/Max/Ebox DNA; c-Myc/Max/Ebox DNA AlphaScreen, NA: inactive under assay conditions, read-out: Biochemical IC50): 94.6 µM; EC50 (H2171 cells): 104 µM
Cc1ccc(C)n1-c1cc(C(=O)N2CCCC(c3ccc(C(=O)O)cc3)C2)ccc1C(=O)O (centres unmarked) [Compound 164]	1 to 10 µM	≥ 100 µM	–
Cc1ccc(C)n1-c1cc(-c2nnc(-c3cccc(C(=O)O)c3)o2)ccc1C(=O)O [Compound 167]	10 to 100 µM	10 to 100 µM	–
Cc1ccc(C)n1-c1cc(C(=O)N2CCCC(c3cccc(C(=O)O)c3)C2)ccc1C(=O)O (centres unmarked) [Compound 169]	1 to 10 µM	≥ 100 µM	–
Cc1ccccc1N1CCN(C(=O)c2ccc(C(=O)O)c(-n3c(C)ccc3C)c2)CC1 [Compound 179]	10 to 100 µM	≥ 100 µM	–
Cc1ccc(C)n1-c1ccccc1C(=O)NS(C)(=O)=O [Compound 180]	10 to 100 µM	≥ 100 µM	–
Cc1ccc(C)n1-c1cccnc1C(=O)O [Compound 181]	1 to 10 µM	≥ 100 µM	–
Cc1ccc(C)n1-c1cc(C(=O)N2CCN(c3cccc(O)c3)CC2)ccc1C(=O)O [Compound 182]	1 to 10 µM	≥ 100 µM	–
COC(=O)c1ccc(C(=O)NNC(=O)OC(C)(C)C)cc1-n1c(C)ccc1C [Compound 184]	≥ 100 µM	≥ 100 µM	–
COc1ccc(C2CCCN(C(=O)c3ccc(C(=O)O)c(-n4c(C)ccc4C)c3)C2)cc1 (centres unmarked) [Compound 185]	10 to 100 µM	≥ 100 µM	–
Cc1ccc(C)n1-c1cc(C(=O)N2CCCC(c3ccc(C(=O)NS(C)(=O)=O)cc3)C2)ccc1C(=O)NS(C)(=O)=O (centres unmarked) [Compound 186]	≥ 100 µM	≥ 100 µM	–
Cc1ccc(C)n1-c1ncccc1C(=O)NS(C)(=O)=O [Compound 187]	≥ 100 µM	≥ 100 µM	–
Cc1ccc(C)n1-c1cc(C(=O)N2CCCC(c3ccccc3)C2)ccc1C(=O)O (centres unmarked) [Compound 188]	10 to 100 µM	≥ 100 µM	–
COc1cccc(C2CCCN(C(=O)c3ccc(C(=O)O)c(-n4c(C)ccc4C)c3)C2)c1 (centres unmarked) [Compound 189]	1 to 10 µM	10 to 100 µM	–
Cc1ccc(C)n1-c1ccccc1C(=O)NS(=O)(=O)C1CC1 [Compound 190]	≥ 100 µM	10 to 100 µM	–
Cc1ccc(C)n1-c1ccccc1C(=O)NS(=O)(=O)c1ccccc1 [Compound 191]	≥ 100 µM	10 to 100 µM	–
Cc1ccc(C(F)(F)F)n1-c1ccccc1C(=O)O [Compound 192]	≥ 100 µM	10 to 100 µM	–
Cc1ccc(C)n1-c1cc(CNCc2ccc(C(=O)O)cc2)ccc1C(=O)O [Compound 193]	< 1 µM	≥ 100 µM	–
Cc1ccc(C)n1-c1cc(C(=O)N2CCN(c3cccnc3)CC2)ccc1C(=O)O [Compound 194]	≥ 100 µM	10 to 100 µM	–
Cc1ccc(C)n1-c1cc(C(=O)N2CCN(c3cccc(C(=O)O)c3)CC2)ccc1C(=O)O [Compound 195]	< 1 µM	≥ 100 µM	–
Cc1ccc(C)n1-c1cc(CNCc2cccc(C(=O)O)c2)ccc1C(=O)O [Compound 196]	1 to 10 µM	≥ 100 µM	–
O=C(O)c1ccccc1-n1c(Br)ccc1C(F)(F)F [Compound 197]	10 to 100 µM	≥ 100 µM	–
Cc1ccc(C)n1-c1cc(C(=O)N2CCN(c3ccccc3C(=O)O)CC2)ccc1C(=O)O [Compound 198]	1 to 10 µM	≥ 100 µM	–

Compound	IC50 (c-Myc/Max/Ebox DNA; [1])	EC50 (Jurkat cells; Homo sapiens, Jurkat)	further results
Cc1ccc(C)n1-c1cc(C(=O)N2CCN(c3ccc(C(=O)O)cc3)CC2)ccc1C(=O)O [Compound 199]	1 to 10 µM	10 to 100 µM	–
Cc1ccccc1C1CCCN(C(=O)c2ccc(C(=O)O)c(-n3c(C)ccc3C)c2)C1 (centres unmarked) [Compound 200]	≥ 100 µM	10 to 100 µM	–
Cc1ccc(C)n1-c1cc(C(=O)N2CCCC(c3ccc(Cl)cc3)C2)ccc1C(=O)O (centres unmarked) [Compound 201]	10 to 100 µM	10 to 100 µM	–
Cc1ccc(C)n1-c1cc(C(=O)N2CCC=C(c3ccc(C(=O)O)cc3)C2)ccc1C(=O)O [Compound 202]	10 to 100 µM	10 to 100 µM	–
Cc1ccc(C)n1-c1cc(C(=O)N2CCCC(c3ccccc3C(=O)O)C2)ccc1C(=O)O (centres unmarked) [Compound 203]	< 1 µM	≥ 100 µM	–
Cc1ccc(C)n1-c1cc(C(=O)N2CCC=C(c3cccc(C(=O)O)c3)C2)ccc1C(=O)O [Compound 204]	10 to 100 µM	10 to 100 µM	–
Cc1ccc(C)n1-c1cc(C(=O)N2CCCC(c3ccc(C(=O)NS(C)(=O)=O)cc3)C2)ccc1C(=O)O (centres unmarked) [Compound 205]	1 to 10 µM	≥ 100 µM	–
Cc1ccc(C)n1-c1cc(-c2nnc(-c3ccc(C(=O)O)cc3)o2)ccc1C(=O)O [Compound 206]	10 to 100 µM	10 to 100 µM	–
Cc1ccc(C)n1-c1cc(C(=O)N2CCCC(c3ccccc3O)C2)ccc1C(=O)O (centres unmarked) [Compound 207]	10 to 100 µM	≥ 100 µM	–
Cc1ccc(C)n1-c1cc(C(=O)N2CCCC(c3ccc(CC(=O)O)cc3)C2)ccc1C(=O)O (centres unmarked) [Compound 208]	1 to 10 µM	10 to 100 µM	–
Cc1ccc(C)n1-c1cc(C(=O)N2CCCC(c3ccc(C(=O)O)cc3)C2)ccc1C(=O)O (centres unmarked) [Compound 209]	10 to 100 µM	–	EC50 (Jurkat cells): ≥ 100 µM
Cc1ccc(C)n1-c1cc(C(=O)N2CCCC(c3ccc(C(=O)O)cc3)C2)ccc1C(=O)O (centres unmarked) [Compound 210]	10 to 100 µM	–	EC50 (Jurkat cells): ≥ 100 µM
COC(=O)c1ccc(C(=O)NN)cc1-n1c(C)ccc1C [Compound 211]	≥ 100 µM	≥ 100 µM	–
Cc1cccc(C2CCCN(C(=O)c3ccc(C(=O)O)c(-n4c(C)ccc4C)c3)C2)c1 (centres unmarked) [Compound 212]	10 to 100 µM	10 to 100 µM	–
COc1ccccc1C(=O)N1CCN(C(=O)c2ccc(C(=O)O)c(-n3c(C)ccc3C)c2)CC1 [Compound 213]	≥ 100 µM	≥ 100 µM	–
Cc1ccc(C)n1-c1cc(Br)ccc1C(=O)NS(C)(=O)=O [Compound 214]	≥ 100 µM	10 to 100 µM	–
Cc1cnc(C(=O)N2CCN(C(=O)c3ccc(C(=O)O)c(-n4c(C)ccc4C)c3)CC2)cn1 [Compound 215]	10 to 100 µM	≥ 100 µM	–
Cc1ccc(C)n1-c1cc(C(=O)N2CCN(C(=O)c3cccnc3)CC2)ccc1C(=O)O [Compound 216]	10 to 100 µM	≥ 100 µM	–
Cc1ccc(C)n1-c1cc(C(=O)N2C[C@H](c3ccccc3)[C@@H](O)C2)ccc1C(=O)O [Compound 217]	10 to 100 µM	≥ 100 µM	–
COc1ccc(C(=O)N2CCN(C(=O)c3ccc(C(=O)O)c(-n4c(C)ccc4C)c3)CC2)cc1 [Compound 218]	10 to 100 µM	10 to 100 µM	–
Cc1ccc(C)n1-c1cc(-c2nnc(-c3ccc(OCc4ccccc4)c(OCc4ccccc4)c3OCc3ccccc3)o2)ccc1C(=O)O [Compound 219]	1 to 10 µM	< 10 µM	–
COc1cccc(C(=O)N2CCN(C(=O)c3ccc(C(=O)O)c(-n4c(C)ccc4C)c3)CC2)c1 [Compound 220]	10 to 100 µM	≥ 100 µM	–
Cc1ccc(C)n1-c1cc(C(=O)N2CCCC(c3ccc(C(=O)O)cc3)C2)ccc1C(=O)NS(C)(=O)=O (centres unmarked) [Compound 221]	10 to 100 µM	≥ 100 µM	–
